Clc1ccc2c(c1)Nc1ccccc1S2
solubility (mole fraction)
Conditions	in 2-butanone	in acetone	in acetonitrile	in ethanol	in ethyl acetate	in isopropanol	in methanol	in n-butanol	in n-propanol
283.15 K	0.0337	0.0268	0.00354	0.00431	0.0156	0.0038	0.00465	0.00328	0.0041
285.65 K	0.0356	0.0281	0.00378	0.00446	0.0173	0.00397	0.00483	0.00344	0.00426
288.15 K	0.0378	0.03	0.00406	0.00465	0.0194	0.00415	0.00502	0.00361	0.00446
290.65 K	0.0402	0.0317	0.00435	0.00486	0.0216	0.00433	0.00525	0.00381	0.00466
293.15 K	0.0427	0.0336	0.00467	0.00505	0.024	0.00454	0.00545	0.00401	0.00487
295.65 K	0.0455	0.0356	0.00498	0.00525	0.0265	0.00473	0.0057	0.00422	0.00509
298.15 K	0.0484	0.0378	0.00532	0.00546	0.0291	0.00493	0.00594	0.00445	0.0053
300.65 K	0.0513	0.0399	0.00564	0.00569	0.0323	0.00513	0.0062	0.00468	0.00552
303.15 K	0.0546	0.0421	0.006	0.00592	0.0357	0.00536	0.00647	0.00492	0.00575
305.65 K	0.0578	0.0443	0.00633	0.00617	0.0397	0.00556	0.00673	0.00518	0.006
308.15 K	0.0612	0.0469	0.00672	0.00641	0.0435	0.0058	0.00701	0.00543	0.00622
310.65 K	0.0646	0.0493	0.0071	0.00667	0.0484	0.00605	0.00728	0.0057	0.00649
313.15 K	0.0683	0.0518	0.00756	0.00695	0.0528	0.0063	0.00758	0.00596	0.00678
315.65 K	0.0727	0.0544	0.00795	0.00723	0.0575	0.00657	0.00786	0.00624	0.00705
318.15 K	0.0771	0.0575	0.00837	0.00756	0.0625	0.00687	0.00819	0.00653	0.00737
